Data reported in patent US20220264924A1, “METHODS AND COMPOSITIONS FOR IMPROVED TASTE QUALITY” (ALMENDRA PTE LTD, priority 2019, published 2022).
Several values for one entry are separate records, joined by “and”; a condition that tells them apart may be missing. Equal values may be shown once.

Columns and labels:
[1] = tested on: human subject (sensory testing); details: cited from earlier work; for sweetness potency, times higher than sucrose: relative to sucrose (Tanaka 1987; Phillips 1989); for sweetness potency, times more potent than sucrose: sensory evaluations, relative to sucrose (Crammer and Ikan 1986)
[2] = tested on: human subject (sensory testing); assay: Sensory test: taste modulator effect on umami taste of MSG (Example 2); assay type: in vivo; details: 0-15 scale; average of three trials; MSG 12 mM
Protocol: (§1) Representative formulations within the scope of the disclosed formulations were prepared and subjected to sensory testing by the methods described above in the section entitled Testing Methodology, where formulations were rated on a 0-15 scales for the Taste Attributes: Umami Intensity (UI), Saltiness Intensity (SaI), Sourness Intensity (SoI), Bitterness Intensity (BI), Astringency Intensity (AI), and Mouthfeel Intensity (MF). In sensory test sessions, the number of samples evaluated was limited to four. In the initial phase of formulation screening, testing was carried out in triplicate with a single subject extensively experienced in the technique of flavor profile analysis.
This study assessed the effect of a disclosed taste modulation formulation on umami taste and other sensory perceptions as described above for the test method, i.e., Umami Intensity (UI), Sourness Intensity (SoI), Saltiness Intensity (SaI), Bitterness Intensity (BI), Mouthfeel Intensity (MF) and Astringency Intensity (AI).
(§2) The sensory protocol was as follows: • 1. Scramble ambient temperature samples so that each test solution is an unknown sample for sensory testing. • 2. Rinse mouth with 15 mL water while swishing vigorously followed by expectoration. • 3. Take 15 mL of the sample into the mouth and swish around vigorously for 15 sec scaling Umami Intensity (U), Sourness Intensity (So), Saltiness Intensity (Sa), Bitterness Intensity (B), Mouthfeel Intensity (MF) and Astringency Intensity (A) on 0-15 scales during this period and recording them in a table. • 4. Expectorate sample, rinse mouth vigorously with 15 mL water and expectorate at 15 sec. • 5. Note any change in sensory perceptions over the next 2 min and record observations in a table. • 6. Rinse mouth with 15 mL water with vigorous agitation in the mouth for 15 sec and expectorate. • 7. Wait a minimum of 15 min and repeat with next sample. • 8. Break sample code to identify samples.
Briefly, a stock solution of 10 mM KCl (746 mg/L)/3 mM MgCl2.6H2O (610 mg/L)/3 mM CaCl2 (333 mg/L) in 1.00 L water was prepared in a 1 L E-flask, stirring to full dissolution. 100 mL portions of the mineral salt solution were then transferred to two 250 mL plastic-capped glass bottles and 100 mL portions of water were added to the other two 250 mL plastic-capped glass bottles. Sample completion was carried out by addition of MSG as follows for Sample Nos. 1-4.
Three independent trials were carried out and the data are summarized below in Table 1, with individual results from each trial and average of the three trials as indicated.

[3] = tested on: human subject (sensory testing); assay: Sensory test: taste modulator effect on mouthfeel with MSG, varied MgCl2/CaCl2 (Example 4); assay type: in vivo; details: 0-15 scale, 12 mM MSG Stock Solution
Protocol: as §1, §2
This study assessed the effects of a disclosed taste modulation formulation on umami taste and other sensory perceptions as described above for the test method, i.e., Umami Intensity (UI), Sourness Intensity (SoI), Saltiness Intensity (SaI), Bitterness Intensity (BI), Mouthfeel Intensity (MF) and Astringency Intensity (AI).
The sensory protocol was as described above in Example 2.
Briefly, a MSG Stock Solution of 12 mM MSG ([…]) was prepared and 100 mL portions of it were added to four 250 mL plastic-capped glass bottles. Sample preparation was completed as follows:
Eight independent trials were carried out and the average results are summarized below in Table 3.

[4] = tested on: human subject (sensory testing); assay: Sweetness Linger of standards in the sensory testing methodology; assay type: in vivo; details: perceived sweetness intensity @ 120 sec; standards in water: 10% Sucrose, 500 PPM REBA
Source text: In various aspects, the present disclosure pertains to methods of testing the disclosed sweetener compositions, e.g., a sensory methodology or method for sweetener evaluation. In a particular aspect, the sensory methodology used is known as a “Flavor Profile Analysis” as has been previously described (see: B. T. Carr, S. D. Pecore, K. M. Gibes and G. E. DuBois, “Sensory Methods for Sweetener Evaluation”, Chapter 11 In Flavor Measurement, C. T. Ho and C. H. Manley, Eds., Marcel Dekker, New York, N.Y., 1993). The full set of sensory parameters that are assessed in the sensory testing method are: (a) Sweetness Intensity (which can be abbreviated in tables herein as “S”); (b) Sourness Intensity ((which can be abbreviated in tables herein as “So”); (c) Saltiness Intensity (which can be abbreviated in tables herein as “Sa”); (d) Bitterness Intensity (which can be abbreviated in tables herein as “B”); (e) Body/Mouthfeel Intensity (which can be abbreviated in tables herein as “B/MF”); (f) Astringency Intensity (which can be abbreviated in tables herein as “A”); (g) Sweetness Linger (which can be abbreviated in tables herein as “SL”); (h) Sweetness Appearance Time (which can be abbreviated in tables herein as “AT”); and (i) Sweetness Desensitization (which can be abbreviated in tables herein as “SD”). […]

[5] = tested on: human subject (sensory testing); details: R in Sucrose Equivalents of Sweetness; C in % (w/v); linear fit; cited from earlier work
[6] = water (Kinghorn 2002); cited from earlier work

In the case of `C=C1C[C@@]23CC[C@H]4[C@@](C)(CCC[C@@]4(C)C(=O)O[C@@H]4O[C@H](CO)[C@@H](O)[C@H](O)[C@H]4O)[C@@H]2CC[C@]1(O[C@@H]1O[C@H](CO)[C@@H](O)[C@H](O)[C@H]1O[C@@H]1O[C@@H](C)[C@H](O)[C@@H](O)[C@H]1O)C3` [Dulcoside A], the “sweetness potency, times higher than sucrose” value [1] is listed as 30 times.
For `N[C@@H](CCC(=O)[O-])C(=O)O.O.[Na+]` [MSG Control 1, MSG-H2O], the “AI (Astringency Intensity) Ave” value [2] was 0.0, the “BI (Bitterness Intensity) Ave” value [2] was 3.0 and the “MF (Mouthfeel Intensity) Ave” value [2] was 3.3. For the same compound, the “Sal (Saltiness Intensity) Ave” value [2] was 2.0, the “Sol (Sourness Intensity) Ave” value [2] was 0.0 and the “UI (Umami Intensity) Ave” value [2] was 4.7. The “AI (Astringency Intensity)” value ([3]; average of eight trials) was 0.0, the “BI (Bitterness Intensity)” value ([3]; average of eight trials) was 0.0 and the “MF (Mouthfeel Intensity)” value ([3]; average of eight trials) was 1.5. For the same compound, the “Sal (Saltiness Intensity)” value ([3]; average of eight trials) was 2.0, the “Sol (Sourness Intensity)” value ([3]; average of eight trials) was 0.0 and the “UI (Umami Intensity)” value ([3]; average of eight trials) was 5.0. For the same compound, the “MF rating, Mean” value ([3]; mean of eight trials) was 1.50 and the “MF rating, individual trials” value ([3]; trials 1-8) was 1 (4×) and 2 (4×).
For `N[C@@H](CCC(=O)[O-])C(=O)O.O.[Na+]` [MSG Control 2, MSG-H2O], the “AI (Astringency Intensity) Ave” value [2] was 0.0, the “BI (Bitterness Intensity) Ave” value [2] was 3.0 and the “MF (Mouthfeel Intensity) Ave” value [2] was 3.0. For the same compound, the “Sal (Saltiness Intensity) Ave” value [2] was 2.0, the “Sol (Sourness Intensity) Ave” value [2] was 0.0 and the “UI (Umami Intensity) Ave” value [2] was 4.7.
In the case of `C=C1C[C@@]23CC[C@H]4[C@@](C)(CCC[C@@]4(C)C(=O)O[C@@H]4O[C@H](CO)[C@@H](O)[C@H](O)[C@H]4O)[C@@H]2CC[C@]1(O[C@@H]1O[C@H](CO)[C@@H](O)[C@H](O[C@@H]2O[C@H](CO)[C@@H](O)[C@H](O)[C@H]2O)[C@H]1O[C@@H]1O[C@H](CO)[C@@H](O)[C@H](O)[C@H]1O)C3` [Rebaudioside A], the “SL (Sweetness Linger)” value [4] is given as 5 and the “sweetness potency, times more potent than sucrose” value [1] is given as 350-450 times.
In the case of `C=C1C[C@@]23CC[C@H]4[C@@](C)(CCC[C@@]4(C)C(=O)O[C@@H]4O[C@H](CO)[C@@H](O)[C@H](O)[C@H]4O)[C@@H]2CC[C@]1(O[C@@H]1O[C@H](CO)[C@@H](O)[C@H](O)[C@H]1O[C@@H]1O[C@H](CO)[C@@H](O)[C@H](O)[C@H]1O)C3` [Stevioside], the “sweetness potency, times higher than sucrose” value [1] is given as 110-270 times.
In the case of `OC[C@H]1O[C@@](CO)(O[C@H]2O[C@H](CO)[C@@H](O)[C@H](O)[C@H]2O)[C@@H](O)[C@@H]1O` [Sucrose], the “SL (Sweetness Linger)” value [4] is given as 0 and the “C/R Function” value [5] is given as “R = C”.
For `C[C@H](CC[C@@H](O[C@@H]1O[C@H](CO[C@@H]2O[C@H](CO)[C@@H](O)[C@H](O)[C@H]2O)[C@@H](O)[C@H](O)[C@H]1O[C@@H]1O[C@H](CO)[C@@H](O)[C@H](O)[C@H]1O)C(C)(C)O)[C@H]1CC[C@@]2(C)[C@@H]3CC=C4[C@@H](CC[C@H](O[C@@H]5O[C@H](CO[C@@H]6O[C@H](CO)[C@@H](O)[C@H](O)[C@H]6O)[C@@H](O)[C@H](O)[C@H]5O)C4(C)C)[C@]3(C)[C@H](O)C[C@]12C` [mogroside V], the “sweetness, times cane sugar” value ([1]; relative to cane sugar on a weight basis, estimated) is listed as “approximately 250 times”.
For Rebaudioside B [REBB], the water solubility [6] is given as “about 0.1%” and the “sweetness potency, times more potent than sucrose” value [1] is given as 300-350 times.
In the case of Rebaudioside C, the “sweetness potency, times higher than sucrose” value [1] is given as 40-60 times.
